From patent publication US4144242A, “Process for the purification of clavulanic acid” (Glaxo Laboratories Limited, priority 1975, dated 1979)
Counter-ions that a name gives are not always drawn. Like-named read-outs stand apart in the source and are kept apart here.

Tests used:
[1] = Uptake of atmospheric water (hygroscopicity); assay type: physicochemical
Description: The solid was hygroscopic. It was ground in a pestle and mortar and allowed to take up atmospheric water at 18° C. After about 22% (w/w) of water was taken up, an equilibrium was reached.

[2] = pKa by potentiometric titration of the salt; assay type: physicochemical
[3] = test system: β-lactamases produced by gram-positive organisms and by gram-negative organisms in classes I-V; experiment: Stability to the action of β-lactamases; assay type: biochemical; details: β-lactamases of S. aureus, B. cereus and gram-negative classes I-V (Richmond and Sykes)
[4] = test system: gram-negative and gram-positive microorganisms; experiment: Antibacterial activity; assay type: cell-based; details: range of gram-negative and gram-positive microorganisms
[5] = Stability in aqueous solution / on storage; assay type: physicochemical
β-lactamase enzymes = experiment: Inhibition of β-lactamase enzymes; assay type: biochemical, gram-positive and gram-negative bacteria
[6] = Solubility of lithium clavulanate in aqueous lithium chloride; assay type: physicochemical; details: about 20° C., read-out: Solubility in mz/ml of lithium clavulanate (approximate)
Description: The eluate will normally contain the lithium salt, e.g. lithium chloride, at a concentration in the range 0.5 to 2.5M whereas, as indicated above, the salting out effect is most efficient at concentrations in the range 5M to 10 M. It is therefore preferred to concentrate the eluate, for example by evaporation in vacuo, e.g. by a factor of about 5. The solubility of lithium clavulanate at about 20° C. in various concentrations of aqueous lithium chloride is given in the following table: […]

With O=C(O)[C@H]1/C(=C/CO)O[C@@H]2CC(=O)N21 [sodium salt, sodium clavulanate] the hygroscopicity ([1]; crystalline solid) was “hygroscopic” and the “water taken up at equilibrium” value ([1]; ground solid, atmospheric water at 18° C.) was “about 22 % (w/w)”.

O=C(O)[C@H]1/C(=C/CO)O[C@@H]2CC(=O)N21 [calcium salt] showed a pKa ([2]; read-out: pKa value of the corresponding acid) of roughly 2.4.

In the case of O=C(O)[C@H]1/C(=C/CO)O[C@@H]2CC(=O)N21 [clavulanic acid, (2R, 5R, Z)-3-(2-hydroxyethylidene)-7-oxo-4-oxa-1-azabicyclo[3,2,0]heptane-2-carboxylic acid], the “stability to the action of β-lactamases” value [3] is reported as “stable”, the antibacterial activity [4] is reported as “have antibacterial activity” and the “stability of the free acid” value ([5]; after its formation) is reported as “rather unstable”. The “stability in aqueous solution” value ([5]; aqueous solution, dependence on pH) was “rather unstable in aqueous solution outside the pH range 5.5 to 8”, the “inhibition of class I β-lactamase enzymes” value (β-lactamase enzymes; a number of class I enzymes (e.g. Bacteroides fragilis, Proteus vulgaris, Proteus morganii, Proteus rettgeri, Enterobacter cloacae, Citrobacter freundii, Providencia species, Hafnia alvei)) was “inhibited” and the “ability to inhibit β-lactamase enzymes” value (β-lactamase enzymes; enzymes of gram-positive organisms (S. aureus, B. cereus) and classes II-V from gram-negative bacteria) was “possess the ability to inhibit β-lactamase enzymes”.

With O=C(O)[C@H]1/C(=C/CO)O[C@@H]2CC(=O)N21 [lithium clavulanate] the “pKa value of the corresponding acid” value ([2]; listed as lithium salt) was “about 2.3”, the solubility ([6]; 2.5 M aqueous LiCl) was 23500 µg/mL and the solubility ([6]; 3.75 M aqueous LiCl) was 10200 µg/mL. It also gave a solubility ([6]; 5.0 M aqueous LiCl) of 4100 µg/mL, a solubility ([6]; 6.25 M aqueous LiCl) of 1800 µg/mL and a solubility ([6]; 7.5 M aqueous LiCl) of 800 µg/mL.
